Source: ChEMBL document CHEMBL2321780, “Fluorinated quinazolinones as potential radiotracers for imaging kinesin spindle protein expression” (2013)
Calls of active or inactive are those of the source. No cut-off for these calls is given here.

Columns and labels:
MCF7 [1] = experiment: Nonspecific cytotoxicity against human MCF7 cells after 44 hrs by MTT assay; assay type: functional; conditions: MCF7, 44 h
SK-OV-3 [2] = experiment: Nonspecific cytotoxicity against human SKOV3 cells after 44 hrs by MTT assay; assay type: functional; conditions: SK-OV-3, 44 h
MCF7 [3] = experiment: Cytotoxicity against human MCF7 cells assessed as inhibition of KSP-mediated cell cycle progression after 44 hrs by MTT assay; assay type: functional; conditions: MCF7, 44 h
PC-3 [4] = experiment: Nonspecific cytotoxicity against human PC3 cells after 44 hrs by MTT assay; assay type: functional; conditions: PC-3, 44 h
SK-OV-3 [5] = experiment: Cytotoxicity against human SKOV3 cells assessed as inhibition of KSP-mediated cell cycle progression after 44 hrs by MTT assay; assay type: functional; conditions: SK-OV-3, 44 h
DU-145 [6] = experiment: Cytotoxicity against human DU145 cells assessed as inhibition of KSP-mediated cell cycle progression after 44 hrs by MTT assay; assay type: functional; conditions: DU-145, 44 h
PC-3 [7] = experiment: Cytotoxicity against human PC3 cells assessed as inhibition of KSP-mediated cell cycle progression after 44 hrs by MTT assay; assay type: functional; conditions: PC-3, 44 h
SK-OV-3 [8] = experiment: Cell cycle arrest in human SKOV3 cells assessed as monoaster phenotype at 100 nM after 22 hrs by confocal microscopic analysis; assay type: functional, cell-based
DU-145 [9] = experiment: Nonspecific cytotoxicity against human DU145 cells after 44 hrs by MTT assay; assay type: functional; conditions: DU-145, 44 h
[10] = target: Centromere-associated protein E (Homo sapiens) (UniProt Q02224); experiment: Inhibition of CENP-E (unknown origin)-mediated ATP hydrolysis assessed as residual activity at 10 uM after 10 to 20 mins by spectrophotometric analysis
Centromere-associated protein E (Homo sapiens), sequence (Q02224 whole entry): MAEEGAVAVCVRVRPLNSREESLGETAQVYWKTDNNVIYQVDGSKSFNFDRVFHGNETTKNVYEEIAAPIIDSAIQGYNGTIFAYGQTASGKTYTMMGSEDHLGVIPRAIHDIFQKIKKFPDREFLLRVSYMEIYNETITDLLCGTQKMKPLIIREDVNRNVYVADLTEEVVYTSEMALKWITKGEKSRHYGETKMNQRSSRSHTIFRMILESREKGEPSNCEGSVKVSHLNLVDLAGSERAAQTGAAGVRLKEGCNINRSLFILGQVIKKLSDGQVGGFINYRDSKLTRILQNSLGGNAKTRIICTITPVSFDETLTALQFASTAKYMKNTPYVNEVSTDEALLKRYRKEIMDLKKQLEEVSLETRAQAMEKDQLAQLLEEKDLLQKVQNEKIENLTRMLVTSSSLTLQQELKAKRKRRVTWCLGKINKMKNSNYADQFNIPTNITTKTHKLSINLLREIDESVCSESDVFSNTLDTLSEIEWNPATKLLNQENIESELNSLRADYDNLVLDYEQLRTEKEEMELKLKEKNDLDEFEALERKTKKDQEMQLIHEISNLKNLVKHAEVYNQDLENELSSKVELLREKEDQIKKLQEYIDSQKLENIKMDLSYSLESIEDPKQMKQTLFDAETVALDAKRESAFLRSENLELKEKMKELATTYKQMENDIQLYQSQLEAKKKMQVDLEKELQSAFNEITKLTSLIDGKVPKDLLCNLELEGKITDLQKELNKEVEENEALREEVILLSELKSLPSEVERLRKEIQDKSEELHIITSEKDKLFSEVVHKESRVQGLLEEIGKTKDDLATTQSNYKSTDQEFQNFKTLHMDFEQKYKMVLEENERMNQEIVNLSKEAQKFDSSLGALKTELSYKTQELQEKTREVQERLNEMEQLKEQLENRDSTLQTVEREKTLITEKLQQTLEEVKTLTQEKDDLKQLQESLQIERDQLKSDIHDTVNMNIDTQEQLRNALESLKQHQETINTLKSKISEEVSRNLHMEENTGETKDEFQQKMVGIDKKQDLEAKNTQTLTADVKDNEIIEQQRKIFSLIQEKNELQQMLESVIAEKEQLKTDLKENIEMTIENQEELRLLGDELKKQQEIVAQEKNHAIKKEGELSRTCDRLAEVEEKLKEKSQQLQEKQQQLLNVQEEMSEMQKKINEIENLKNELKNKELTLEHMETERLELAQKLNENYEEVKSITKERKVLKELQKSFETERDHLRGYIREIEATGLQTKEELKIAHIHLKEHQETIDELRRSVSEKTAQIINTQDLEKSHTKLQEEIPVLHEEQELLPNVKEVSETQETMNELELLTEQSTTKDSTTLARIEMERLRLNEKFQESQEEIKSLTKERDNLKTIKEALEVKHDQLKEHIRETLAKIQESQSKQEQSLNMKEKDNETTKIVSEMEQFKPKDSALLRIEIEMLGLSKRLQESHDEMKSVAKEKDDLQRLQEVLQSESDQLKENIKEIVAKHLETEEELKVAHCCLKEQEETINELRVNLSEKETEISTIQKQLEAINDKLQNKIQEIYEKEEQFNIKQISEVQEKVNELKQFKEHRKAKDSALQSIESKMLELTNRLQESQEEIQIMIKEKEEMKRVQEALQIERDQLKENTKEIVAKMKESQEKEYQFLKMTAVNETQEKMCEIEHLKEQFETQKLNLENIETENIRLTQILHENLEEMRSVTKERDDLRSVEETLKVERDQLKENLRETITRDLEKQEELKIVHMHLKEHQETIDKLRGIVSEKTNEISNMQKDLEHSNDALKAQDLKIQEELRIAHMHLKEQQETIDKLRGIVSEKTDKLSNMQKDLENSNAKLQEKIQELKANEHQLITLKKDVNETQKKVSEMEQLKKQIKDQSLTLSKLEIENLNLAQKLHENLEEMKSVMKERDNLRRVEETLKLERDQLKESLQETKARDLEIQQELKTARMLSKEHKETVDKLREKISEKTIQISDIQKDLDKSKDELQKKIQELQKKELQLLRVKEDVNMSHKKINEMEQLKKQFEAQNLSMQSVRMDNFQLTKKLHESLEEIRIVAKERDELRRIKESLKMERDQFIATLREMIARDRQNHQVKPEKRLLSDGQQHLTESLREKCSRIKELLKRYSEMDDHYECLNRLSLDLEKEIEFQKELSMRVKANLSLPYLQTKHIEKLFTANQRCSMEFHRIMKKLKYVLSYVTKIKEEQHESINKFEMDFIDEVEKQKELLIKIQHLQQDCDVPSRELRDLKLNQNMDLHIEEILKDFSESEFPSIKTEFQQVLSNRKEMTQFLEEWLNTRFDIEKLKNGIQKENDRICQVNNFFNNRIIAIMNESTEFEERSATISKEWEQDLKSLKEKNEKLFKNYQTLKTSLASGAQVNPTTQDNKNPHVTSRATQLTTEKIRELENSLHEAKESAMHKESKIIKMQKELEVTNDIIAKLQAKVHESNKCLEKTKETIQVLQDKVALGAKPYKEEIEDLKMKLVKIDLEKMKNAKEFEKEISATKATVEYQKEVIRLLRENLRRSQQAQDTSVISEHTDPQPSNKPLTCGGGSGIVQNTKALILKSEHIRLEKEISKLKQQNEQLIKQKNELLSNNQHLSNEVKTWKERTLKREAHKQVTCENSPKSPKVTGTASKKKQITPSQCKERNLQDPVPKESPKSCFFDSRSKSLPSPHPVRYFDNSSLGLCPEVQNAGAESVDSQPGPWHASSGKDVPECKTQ

[11] = target: T1, Kinesin-like protein KIF2C (Homo sapiens) (UniProt Q99661); experiment: Inhibition of MCAK (unknown origin)-mediated ATP hydrolysis assessed as residual activity at 10 uM after 10 to 20 mins by spectrophotometric analysis
T1 sequence (whole entry): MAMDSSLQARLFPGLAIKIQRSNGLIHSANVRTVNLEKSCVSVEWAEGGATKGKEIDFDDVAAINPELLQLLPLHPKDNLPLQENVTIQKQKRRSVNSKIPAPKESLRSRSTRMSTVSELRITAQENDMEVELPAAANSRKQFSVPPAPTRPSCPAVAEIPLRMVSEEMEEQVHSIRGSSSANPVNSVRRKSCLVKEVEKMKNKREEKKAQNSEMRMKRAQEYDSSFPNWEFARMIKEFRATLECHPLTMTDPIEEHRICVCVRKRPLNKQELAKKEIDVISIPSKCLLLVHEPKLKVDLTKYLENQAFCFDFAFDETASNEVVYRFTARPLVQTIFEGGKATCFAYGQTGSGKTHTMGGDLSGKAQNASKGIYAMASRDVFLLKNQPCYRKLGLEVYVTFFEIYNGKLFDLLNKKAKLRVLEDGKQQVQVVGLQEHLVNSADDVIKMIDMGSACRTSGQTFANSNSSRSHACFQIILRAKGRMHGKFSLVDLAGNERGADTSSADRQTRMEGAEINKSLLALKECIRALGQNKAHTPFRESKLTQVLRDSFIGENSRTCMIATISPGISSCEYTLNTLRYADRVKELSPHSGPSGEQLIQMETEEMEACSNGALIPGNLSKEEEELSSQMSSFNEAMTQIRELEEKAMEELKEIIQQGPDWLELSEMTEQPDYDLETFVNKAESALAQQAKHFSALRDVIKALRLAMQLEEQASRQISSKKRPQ

[12] = target: T2, Kinesin-1 heavy chain (Homo sapiens) (UniProt P33176); experiment: Inhibition of KNH (unknown origin)-mediated ATP hydrolysis assessed as residual activity at 10 uM after 10 to 20 mins by spectrophotometric analysis
T2 sequence (whole entry): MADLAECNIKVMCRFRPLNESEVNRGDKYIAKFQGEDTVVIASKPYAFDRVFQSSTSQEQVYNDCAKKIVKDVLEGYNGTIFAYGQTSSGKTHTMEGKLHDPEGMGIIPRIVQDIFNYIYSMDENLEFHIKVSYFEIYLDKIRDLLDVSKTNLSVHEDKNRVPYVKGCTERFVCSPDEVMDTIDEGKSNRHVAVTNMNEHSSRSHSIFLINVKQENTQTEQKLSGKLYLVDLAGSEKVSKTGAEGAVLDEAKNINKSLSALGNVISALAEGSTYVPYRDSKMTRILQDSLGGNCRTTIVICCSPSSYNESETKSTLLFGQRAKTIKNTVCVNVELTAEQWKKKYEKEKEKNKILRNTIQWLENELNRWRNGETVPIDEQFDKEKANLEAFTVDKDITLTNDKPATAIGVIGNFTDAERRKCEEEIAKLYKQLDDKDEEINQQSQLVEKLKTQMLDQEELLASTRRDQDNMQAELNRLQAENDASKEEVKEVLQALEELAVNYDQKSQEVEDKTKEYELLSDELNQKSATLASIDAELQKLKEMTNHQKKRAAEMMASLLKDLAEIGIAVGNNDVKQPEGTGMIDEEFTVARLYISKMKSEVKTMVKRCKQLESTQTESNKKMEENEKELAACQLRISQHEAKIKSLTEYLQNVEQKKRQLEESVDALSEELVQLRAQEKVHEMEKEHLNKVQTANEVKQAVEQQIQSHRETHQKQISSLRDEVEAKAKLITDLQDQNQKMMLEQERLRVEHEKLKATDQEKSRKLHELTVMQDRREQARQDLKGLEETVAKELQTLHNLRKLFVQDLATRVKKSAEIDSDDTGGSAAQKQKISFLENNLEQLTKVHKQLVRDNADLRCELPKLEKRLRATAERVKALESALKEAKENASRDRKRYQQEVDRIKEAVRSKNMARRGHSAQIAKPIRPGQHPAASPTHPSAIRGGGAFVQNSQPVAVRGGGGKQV

[13] = target: T3, Kinesin-like protein KIFC3 (Homo sapiens) (UniProt Q9BVG8); experiment: Inhibition of KIFC3 (unknown origin)-mediated ATP hydrolysis assessed as residual activity at 10 uM after 10 to 20 mins by spectrophotometric analysis
T3 sequence (whole entry): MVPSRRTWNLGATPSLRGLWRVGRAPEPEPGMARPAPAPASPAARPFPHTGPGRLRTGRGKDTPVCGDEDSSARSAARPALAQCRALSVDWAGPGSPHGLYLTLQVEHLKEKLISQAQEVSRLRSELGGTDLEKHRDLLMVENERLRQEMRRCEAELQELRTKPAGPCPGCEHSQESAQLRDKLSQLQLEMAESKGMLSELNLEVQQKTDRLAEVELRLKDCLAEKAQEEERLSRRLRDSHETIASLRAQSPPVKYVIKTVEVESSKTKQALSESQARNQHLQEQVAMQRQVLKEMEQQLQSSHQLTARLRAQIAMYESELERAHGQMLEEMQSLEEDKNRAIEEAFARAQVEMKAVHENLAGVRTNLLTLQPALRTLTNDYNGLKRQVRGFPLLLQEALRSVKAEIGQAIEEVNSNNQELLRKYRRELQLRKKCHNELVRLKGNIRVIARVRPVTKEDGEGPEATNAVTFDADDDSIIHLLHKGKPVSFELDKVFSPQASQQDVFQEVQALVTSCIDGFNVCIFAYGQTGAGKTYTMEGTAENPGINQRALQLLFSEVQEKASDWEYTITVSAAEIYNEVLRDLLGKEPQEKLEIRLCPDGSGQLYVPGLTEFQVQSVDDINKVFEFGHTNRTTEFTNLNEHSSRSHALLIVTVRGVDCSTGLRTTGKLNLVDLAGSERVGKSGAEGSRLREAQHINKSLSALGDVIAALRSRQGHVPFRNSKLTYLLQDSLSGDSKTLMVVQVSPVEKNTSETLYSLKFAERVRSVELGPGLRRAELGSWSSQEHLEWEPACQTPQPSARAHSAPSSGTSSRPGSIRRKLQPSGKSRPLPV

SMILES	GI50 (MCF7 [1])	GI50 (SK-OV-3 [2])	GI50 (MCF7 [3])	GI50 (PC-3 [4])	GI50 (SK-OV-3 [5])	GI50 (DU-145 [6])	GI50 (PC-3 [7])	Activity (SK-OV-3 [8])	GI50 (DU-145 [9])	Activity [10]	Activity [11]	Activity [12]	Activity [13]
CC(C)C(c1nc2cc(Cl)ccc2c(=O)n1Cc1ccccc1)N(CCCN)C(=O)c1ccccc1F (racemic)	1900 nM	3100 nM	17.7 nM	350 nM	35.6 nM	48.5 nM	1.9 nM						
CC(C)[C@H](c1nc2cc(Cl)ccc2c(=O)n1Cc1ccccc1)N(CCCN)C(=O)c1cccc(F)c1								Active					
CC(C)C(c1nc2cc(Cl)ccc2c(=O)n1Cc1ccccc1)N(CCCN)C(=O)c1ccc(F)cc1 (racemic)	2700 nM	4300 nM	4000 nM	6300 nM	2700 nM	1100 nM	1100 nM		3100 nM				
CCOC(=O)C1=C(C)NC(=S)N[C@@H]1c1cccc(O)c1										97.7%	97%	98.5%	98.3%
